Results published in PubChem BioAssay (NCI).
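Protocol summary: plate cells (96-well), add compound at 5 concentrations, incubate 48 h, interpolate endpoints linearly. The concentration for 50% growth inhibition is given as GI50. TGI denotes the concentration required for complete inhibition of growth.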 Where a SMILES comes first, the peptide text is derived from it. [ ]: non-standard residue; d: D form. The star is where a group is joined. ξ: configuration not given here. X6 = FC(F)(F)c1cc(NC(=S)*)cc(C(F)(F)F)c1; ξF = NC(Cc1ccccc1)C(=O)O

What was measured:
Test in all cases: NCI-60 cell line screen, 48 h
[1] = system: MDA-MB-231 breast
[2] = system: NCI-H226 lung
[3] = system: MCF7 breast
[4] = system: T-47D breast
[5] = system: BT-549 breast
[6] = system: SNB-78 CNS
[7] = system: M19-MEL melanoma
[8] = system: KM20L2 colon
[9] = system: LXFL 529 NSCLC

## Cc1nc2ccccc2c(N)c1-c1cc(C)c2c(C)nc3ccccc3c2n1
[1]
  GI50: 0.298 µM
  TGI: 0.904 µM
[2]
  GI50: 1.44 µM
  TGI: 2.94 µM
[3]
  GI50: 0.675 µM
  TGI: 2.06 µM
[4]
  GI50: 1.78 µM
  TGI: 4.04 µM
[5]
  GI50: 1.05 µM
  TGI: 2.46 µM

## O=S(=O)(NC1=NCCN1C(=S)SN1CCn2c1nsc2=S)c1ccc(OC(F)(F)F)cc1
[1]
  GI50: 15.1 µM
  TGI: 36.1 µM
[2]
  GI50: 18 µM
  TGI: 38.7 µM
[3]
  GI50: 4.52 µM
  TGI: 25.2 µM
[4]
  GI50: 13.9 µM
  TGI: 44.4 µM

## C=C(CN1CCN(c2ccc(Cl)cc2F)CC1)c1ccc(C(=O)Nc2ccccc2N)cc1
[1]
  GI50: 0.536 µM
  TGI: 3.64 µM
[2]
  GI50: 3.29 µM
  TGI: > 100 µM
[3]
  GI50: 3.08 µM
  TGI: > 100 µM
[4]
  TGI: > 100 µM
[5]
  GI50: 2.99 µM
  TGI: > 65.3 µM

## Cn1cc(C2=C(c3cn(C)c4ncccc34)C(=O)NC2=O)c2ccccc21
[1]
  GI50: 12.2 µM
  TGI: > 25 µM
[2]
  GI50: 5.45 µM
  TGI: 16.5 µM
[3]
  GI50: 7.66 µM
  TGI: > 25 µM
[4]
  GI50: 7.56 µM
  TGI: > 23.5 µM
[5]
  GI50: 6.97 µM
  TGI: 22.2 µM

## COc1ccc(-c2nc3sccn3c2/C(N)=N/C(=N)N)cc1OC
[1]
  GI50: 17.8 µM
  TGI: 39.3 µM
[2]
  GI50: 45.1 µM
  TGI: > 100 µM
[3]
  GI50: 56.9 µM
  TGI: > 100 µM
[4]
  GI50: 29.1 µM
  TGI: > 100 µM
[5]
  GI50: 22.8 µM
  TGI: 43.3 µM

## O=C1C(Cl)=C(Nc2cccc(Cl)c2)C(=O)N1Cc1ccc(Cl)cc1Cl
[1]
  GI50: 0.176 µM
  TGI: 12.9 µM
[2]
  TGI: 2.26 µM
[3]
  GI50: 1.24 µM
  TGI: 41.5 µM
[4]
  GI50: 1.72 µM
  TGI: > 41.8 µM
[5]
  GI50: 0.0663 µM
  TGI: 7.48 µM

## COc1ccc(C(=O)Cn2c(C(=O)c3ccccc3)nc(-c3ccc(OC)cc3)c2-c2ccc(OC)cc2)cc1
[1]
  GI50: 64.3 µM
  TGI: > 100 µM
[2]
  GI50: > 100 µM
  TGI: > 100 µM
[3]
  GI50: > 100 µM
  TGI: > 100 µM
[4]
  GI50: > 100 µM
  TGI: > 100 µM
[5]
  GI50: > 100 µM
  TGI: > 100 µM

## COc1ccc2c(c1)/C(=C/c1c(C)nc3sc(C)nn13)C(=O)N2
[1]
  GI50: 7.59 µM
  TGI: > 100 µM
[2]
  GI50: > 28.4 µM
  TGI: > 100 µM
[3]
  GI50: 1.61 µM
  TGI: > 100 µM
[4]
  GI50: 2.53 µM
  TGI: > 100 µM
[5]
  GI50: 5.69 µM
  TGI: > 100 µM

## Cc1cc(I)cc(CN(C)CCCCN2CCCCC2)c1O
[1]
  GI50: 16.3 µM
  TGI: 43 µM
[2]
  GI50: 25.7 µM
  TGI: > 100 µM
[3]
  GI50: 13.6 µM
  TGI: 30 µM
[4]
  GI50: 16.1 µM
  TGI: 49.3 µM
[5]
  GI50: 8.05 µM
  TGI: 21.5 µM

## CC12CCC(O)CC1CCC1C2CCC2(C)C(C3=CC(=O)OC3)CCC12O (configuration not stated)
[1]
  TGI: > 100 µM
[2]
  TGI: 27.7 µM
[4]
  TGI: 14.7 µM
[5]
  TGI: 4.53 µM

## CC/C=C\CCC/C=C1/C(=O)C=C[C@@H]1C/C=C\CCCC(=O)OC
[1]
  GI50: 4.23 µM
  TGI: 14.9 µM
[2]
  GI50: 3.25 µM
  TGI: 9.64 µM
[3]
  GI50: 2.69 µM
  TGI: 13.9 µM
[4]
  GI50: 5.16 µM
  TGI: 19.2 µM

## CCN(CCO)CC1CCCC2CCCCC21 (configuration not stated)
[1]
  TGI: > 100 µM
[2]
  TGI: > 100 µM
[3]
  TGI: > 100 µM
[4]
  TGI: > 100 µM
[5]
  TGI: > 100 µM

## CC(C)CCC[C@@H](C)[C@H]1CC[C@H]2[C@@H]3CC=C4C[C@@H](C(C(=O)O)C(=O)O)CC[C@]4(C)[C@H]3CC[C@]12C
[1]
  GI50: 0.214 µM
  TGI: 0.838 µM
[2]
  GI50: 0.209 µM
  TGI: 0.622 µM
[3]
  GI50: 0.386 µM
  TGI: 5.37 µM
[4]
  GI50: 0.188 µM
  TGI: 2.8 µM
[5]
  GI50: 0.197 µM
  TGI: 2.21 µM

## CCCCCN(CCCCC)CCCNc1c2c(nc3ccc(Cl)cc13)CCCC2
[1]
  GI50: 2.76 µM
  TGI: 13.1 µM
[2]
  GI50: 2.05 µM
  TGI: 6.71 µM
[3]
  GI50: 2.46 µM
  TGI: 8.34 µM
[4]
  GI50: 2.6 µM
  TGI: 6.17 µM
[5]
  GI50: 11.2 µM
  TGI: 23.4 µM

## NC(=O)c1cccc2cn(-c3ccc([C@@H]4CCCNC4)cc3)nc12
[1]
  GI50: 11.7 µM
  TGI: 31.2 µM
[2]
  GI50: 14.4 µM
  TGI: 30.1 µM
[3]
  GI50: 6.59 µM
  TGI: 23.9 µM
[4]
  GI50: 12.9 µM
  TGI: 35.5 µM
[5]
  GI50: 18.8 µM
  TGI: 40.9 µM

## COc1cc(Cc2cnc(/N=C3\C(=O)N(CN4CCN(c5c(F)cc6c(=O)c(C(=O)O)cn(C7CC7)c6c5OC)CC4C)c4ccc(F)cc43)nc2N)cc(OC)c1OC (configuration not stated)
[1]
  GI50: 11.8 µM
  TGI: 30.3 µM
[2]
  GI50: 13.8 µM
  TGI: 43.3 µM
[3]
  GI50: 8.35 µM
  TGI: 52.8 µM
[4]
  GI50: 2.85 µM
  TGI: 24.3 µM
[5]
  GI50: 19.7 µM
  TGI: 49.2 µM

## COC1CCC2C(NS(=O)(=O)c3ccc(C)cc3)CCCC2O1 (configuration not stated) (tested in a mixture with another compound)
[6]
  TGI: > 34.5 µM
[7]
  TGI: > 34.5 µM
[2]
  TGI: > 34.5 µM
[8]
  TGI: > 34.5 µM

## COc1ccc2c(C3=C(c4cn(C)c5ccccc45)C(=O)NC3=O)cn(C)c2c1
[1]
  GI50: 0.542 µM
  TGI: > 25 µM
[2]
  GI50: 2.63 µM
  TGI: > 25 µM
[3]
  GI50: 0.0853 µM
  TGI: > 25 µM
[5]
  TGI: > 25 µM

## O=C(O)CSc1ccc([N+](=O)[O-])cc1[N+](=O)[O-]
[1]
  TGI: > 100 µM
[3]
  TGI: > 100 µM
[4]
  TGI: > 100 µM
[5]
  TGI: > 100 µM

## COc1cc(/C=N/NC(=O)c2ccc(C(F)(F)F)nc2Nc2ccc(Cl)cc2C)ccc1O
[1]
  GI50: 0.939 µM
  TGI: 10.3 µM
[2]
  GI50: 1.28 µM
  TGI: 5.01 µM
[3]
  GI50: 2.02 µM
  TGI: 11.6 µM
[4]
  GI50: 1.49 µM
  TGI: 18 µM
[5]
  GI50: 1.34 µM
  TGI: 9.69 µM

## COC1=CC(=O)c2nc(-c3ccncc3)[nH]c2C1=O
[1]
  GI50: > 100 µM
  TGI: > 100 µM
[2]
  GI50: > 100 µM
  TGI: > 100 µM
[3]
  GI50: > 100 µM
  TGI: > 100 µM
[4]
  GI50: > 100 µM
  TGI: > 100 µM
[5]
  GI50: > 100 µM
  TGI: > 100 µM

## Cc1nc2ccccc2c(=O)n1-c1ccccc1I
[6]
  TGI: > 100 µM
[7]
  TGI: > 100 µM
[9]
  TGI: > 100 µM
[2]
  TGI: > 100 µM

## COC(=O)[C@@H](NC(=O)CNC(=O)[C@H]1CCCN1C(=O)C(Cc1ccccc1)NC(=S)Nc1cc(C(F)(F)F)cc(C(F)(F)F)c1)C(C)C (some centres not stated) (X6-[ξF][dP]GV-OMe)
[1]
  GI50: 1.48 µM
  TGI: 3.14 µM
[2]
  GI50: 1.65 µM
  TGI: 3.42 µM
[3]
  GI50: 2.86 µM
  TGI: 11.3 µM
[4]
  GI50: 3.87 µM
  TGI: 28.8 µM
[5]
  GI50: 1.85 µM
  TGI: 3.78 µM
